Active and inactive are the calls of the source. The rule behind the calls is not given here.
Assays:
[1] = system: Tyrosine-protein kinase ABL1 (Homo sapiens), P00519 [H396P]; test: Inhibition of T7 bacteriophage fused human phosphorylated ABL1 H396P mutant at 10 uM by KINOMEscan analysis relative to control
[2] = biological target: Tyrosine-protein kinase ABL1 (Homo sapiens) (UniProt P00519); test: Inhibition of T7 bacteriophage fused human phosphorylated ABL1 at 10 uM by KINOMEscan analysis relative to control
[3] = biological target: Ankyrin repeat and protein kinase domain-containing protein 1 (Homo sapiens) (UniProt Q8NFD2); test: Inhibition of T7 bacteriophage fused human ANKK1 at 10 uM by KINOMEscan analysis relative to control
[4] = biological target: Cytoplasmic tyrosine-protein kinase BMX (Homo sapiens) (UniProt P51813); test: Inhibition of T7 bacteriophage fused human BMX at 10 uM by KINOMEscan analysis relative to control
[5] = biological target: Cyclin-dependent kinase 2 (Homo sapiens) (UniProt P24941); test: Inhibition of T7 bacteriophage fused human CDK2 at 10 uM by KINOMEscan analysis relative to control
[6] = biological target: Cyclin-dependent kinase 8 (Homo sapiens) (UniProt P49336); test: Inhibition of T7 bacteriophage fused human CDK8 at 10 uM by KINOMEscan analysis relative to control
[7] = biological target: Casein kinase I isoform gamma-2 (Homo sapiens) (UniProt P78368); test: Inhibition of T7 bacteriophage fused human CSNK1G2 at 10 uM by KINOMEscan analysis relative to control
[8] = biological target: Eukaryotic translation initiation factor 2-alpha kinase 1 (Homo sapiens) (UniProt Q9BQI3); test: Inhibition of T7 bacteriophage fused human EIF2AK1 at 10 uM by KINOMEscan analysis relative to control
[9] = biological target: Mitogen-activated protein kinase 4 (Homo sapiens) (UniProt P31152); test: Inhibition of T7 bacteriophage fused human ERK4 at 10 uM by KINOMEscan analysis relative to control
[10] = biological target: Mitogen-activated protein kinase 15 (Homo sapiens) (UniProt Q8TD08); test: Inhibition of T7 bacteriophage fused human ERK8 at 10 uM by KINOMEscan analysis relative to control
[11] = system: Receptor-type tyrosine-protein kinase FLT3 (Homo sapiens), P36888 [D835H]; test: Inhibition of T7 bacteriophage fused human FLT3 D835H mutant at 10 uM by KINOMEscan analysis relative to control
[12] = biological target: Homeodomain-interacting protein kinase 2 (Homo sapiens) (UniProt Q9H2X6); test: Inhibition of T7 bacteriophage fused human HIPK2 at 10 uM by KINOMEscan analysis relative to control
[13] = biological target: Inhibitor of nuclear factor kappa-B kinase subunit alpha (Homo sapiens) (UniProt O15111); test: Inhibition of T7 bacteriophage fused human IKK-alpha at 10 uM by KINOMEscan analysis relative to control
[14] = biological target: Interleukin-1 receptor-associated kinase 3 (Homo sapiens) (UniProt Q9Y616); test: Inhibition of T7 bacteriophage fused human IRAK3 at 10 uM by KINOMEscan analysis relative to control
[15] = system: Mast/stem cell growth factor receptor Kit (Homo sapiens), P10721 [A829P]; test: Inhibition of T7 bacteriophage fused human KIT A829P mutant at 10 uM by KINOMEscan analysis relative to control
[16] = biological target: LIM domain kinase 2 (Homo sapiens) (UniProt P53671); test: Inhibition of T7 bacteriophage fused human LIMK2 at 10 uM by KINOMEscan analysis relative to control
[17] = biological target: Serine/threonine-protein kinase MRCK alpha (Homo sapiens) (UniProt Q5VT25); test: Inhibition of T7 bacteriophage fused human MRCKA at 10 uM by KINOMEscan analysis relative to control
[18] = biological target: Phosphatidylinositol 4,5-bisphosphate 3-kinase catalytic subunit delta isoform (Homo sapiens) (UniProt O00329); test: Inhibition of T7 bacteriophage fused human PIK3CD at 10 uM by KINOMEscan analysis relative to control
[19] = biological target: Serine/threonine-protein kinase N2 (Homo sapiens) (UniProt Q16513); test: Inhibition of T7 bacteriophage fused human PKN2 at 10 uM by KINOMEscan analysis relative to control
[20] = biological target: Protein kinase C eta type (Homo sapiens) (UniProt P24723); test: Inhibition of T7 bacteriophage fused human PRKCH at 10 uM by KINOMEscan analysis relative to control
[21] = biological target: cGMP-dependent protein kinase 2 (Homo sapiens) (UniProt Q13237); test: Inhibition of T7 bacteriophage fused human PRKG2 at 10 uM by KINOMEscan analysis relative to control
[22] = biological target: RAF proto-oncogene serine/threonine-protein kinase (Homo sapiens) (UniProt P04049); test: Inhibition of T7 bacteriophage fused human RAF1 at 10 uM by KINOMEscan analysis relative to control
[23] = biological target: Focal adhesion kinase 1 (Homo sapiens) (UniProt Q05397); test: Inhibition of T7 bacteriophage fused human FAK at 10 uM by KINOMEscan analysis relative to control; values are per cent of control
[24] = biological target: Serine/threonine-protein kinase NLK (Homo sapiens) (UniProt Q9UBE8); test: Inhibition of T7 bacteriophage fused human NLK at 10 uM by KINOMEscan analysis relative to control; values are per cent of control
[25] = biological target: Serine/threonine-protein kinase 24 (Homo sapiens) (UniProt Q9Y6E0); test: Inhibition of T7 bacteriophage fused human MST3 at 10 uM by KINOMEscan analysis relative to control; values are per cent of control
[26] = biological target: Serine/threonine-protein kinase Nek1 (Homo sapiens) (UniProt Q96PY6); test: Inhibition of T7 bacteriophage fused human NEK1 at 10 uM by KINOMEscan analysis relative to control; values are per cent of control
[27] = biological target: Ephrin type-A receptor 7 (Homo sapiens) (UniProt Q15375); test: Inhibition of T7 bacteriophage fused human EPHA7 at 10 uM by KINOMEscan analysis relative to control; values are per cent of control
[28] = biological target: Insulin receptor-related protein (Homo sapiens) (UniProt P14616); test: Inhibition of T7 bacteriophage fused human INSRR at 10 uM by KINOMEscan analysis relative to control; values are per cent of control
[29] = biological target: Myosin light chain kinase family member 4 (Homo sapiens) (UniProt Q86YV6); test: Inhibition of T7 bacteriophage fused human MYLK4 at 10 uM by KINOMEscan analysis relative to control; values are per cent of control
[30] = biological target: Leucine-rich repeat serine/threonine-protein kinase 2 (Homo sapiens) (UniProt Q5S007); test: Inhibition of LRRK2 phosphorylation at Ser935 residue in EBV immortalized human derived lymphoblastoid cells at 0.01 to 3 uM incubated for 90 mins by immunoblot analysis; assay type: cell-based; details: Lymphoblastoid cell, dose 0.01-3 µM

Sequence of Cyclin-dependent kinase 8 (Homo sapiens) (P49336 whole entry, the tested form may be a part, canonical isoform): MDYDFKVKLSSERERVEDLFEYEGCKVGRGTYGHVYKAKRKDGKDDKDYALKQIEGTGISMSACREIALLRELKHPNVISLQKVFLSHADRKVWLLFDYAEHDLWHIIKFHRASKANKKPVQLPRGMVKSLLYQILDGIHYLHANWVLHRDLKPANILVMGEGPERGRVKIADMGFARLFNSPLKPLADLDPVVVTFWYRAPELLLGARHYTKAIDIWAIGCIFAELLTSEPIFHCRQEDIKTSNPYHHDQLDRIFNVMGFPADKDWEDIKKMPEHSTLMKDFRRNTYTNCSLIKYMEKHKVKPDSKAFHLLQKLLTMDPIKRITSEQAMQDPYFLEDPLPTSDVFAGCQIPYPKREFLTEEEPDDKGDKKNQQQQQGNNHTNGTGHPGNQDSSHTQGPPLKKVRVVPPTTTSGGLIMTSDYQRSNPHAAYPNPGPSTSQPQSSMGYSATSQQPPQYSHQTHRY
Sequence of Protein kinase C eta type (Homo sapiens) (P24723 whole entry, the tested form may be a part): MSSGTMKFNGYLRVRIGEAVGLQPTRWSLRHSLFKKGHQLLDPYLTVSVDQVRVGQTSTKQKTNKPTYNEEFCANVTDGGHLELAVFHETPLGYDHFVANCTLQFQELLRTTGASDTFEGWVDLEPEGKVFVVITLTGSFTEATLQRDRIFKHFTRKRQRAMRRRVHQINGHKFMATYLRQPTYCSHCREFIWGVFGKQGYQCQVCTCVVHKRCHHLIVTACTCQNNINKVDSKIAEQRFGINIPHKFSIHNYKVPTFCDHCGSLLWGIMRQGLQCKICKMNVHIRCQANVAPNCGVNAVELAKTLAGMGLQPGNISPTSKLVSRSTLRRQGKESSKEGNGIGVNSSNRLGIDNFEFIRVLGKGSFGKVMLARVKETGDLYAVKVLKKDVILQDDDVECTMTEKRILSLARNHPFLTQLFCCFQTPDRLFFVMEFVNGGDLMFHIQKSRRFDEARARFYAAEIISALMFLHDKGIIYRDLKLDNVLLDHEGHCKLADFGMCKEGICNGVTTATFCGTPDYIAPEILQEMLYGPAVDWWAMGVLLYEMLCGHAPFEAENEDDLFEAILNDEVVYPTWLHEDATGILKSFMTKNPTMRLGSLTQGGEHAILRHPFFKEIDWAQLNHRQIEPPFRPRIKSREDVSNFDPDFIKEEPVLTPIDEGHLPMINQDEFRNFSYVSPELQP
Sequence of Mitogen-activated protein kinase 4 (Homo sapiens) (P31152 whole entry, the tested form may be a part): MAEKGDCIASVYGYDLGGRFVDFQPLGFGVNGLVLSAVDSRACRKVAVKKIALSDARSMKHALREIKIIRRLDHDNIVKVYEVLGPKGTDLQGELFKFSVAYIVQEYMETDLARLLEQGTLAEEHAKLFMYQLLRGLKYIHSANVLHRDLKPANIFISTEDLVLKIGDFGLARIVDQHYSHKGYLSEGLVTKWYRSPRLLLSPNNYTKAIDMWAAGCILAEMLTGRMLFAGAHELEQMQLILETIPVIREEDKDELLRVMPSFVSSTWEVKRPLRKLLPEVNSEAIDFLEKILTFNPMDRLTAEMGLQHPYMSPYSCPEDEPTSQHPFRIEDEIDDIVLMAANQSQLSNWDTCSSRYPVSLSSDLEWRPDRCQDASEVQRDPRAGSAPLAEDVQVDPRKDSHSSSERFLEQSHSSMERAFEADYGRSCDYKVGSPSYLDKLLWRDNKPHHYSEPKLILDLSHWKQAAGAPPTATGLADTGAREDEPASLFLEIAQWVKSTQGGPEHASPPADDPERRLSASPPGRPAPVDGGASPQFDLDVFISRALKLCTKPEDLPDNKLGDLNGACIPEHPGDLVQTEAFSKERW
Sequence of Serine/threonine-protein kinase 24 (Homo sapiens) (Q9Y6E0 whole entry, looked up, the tested form may be a part): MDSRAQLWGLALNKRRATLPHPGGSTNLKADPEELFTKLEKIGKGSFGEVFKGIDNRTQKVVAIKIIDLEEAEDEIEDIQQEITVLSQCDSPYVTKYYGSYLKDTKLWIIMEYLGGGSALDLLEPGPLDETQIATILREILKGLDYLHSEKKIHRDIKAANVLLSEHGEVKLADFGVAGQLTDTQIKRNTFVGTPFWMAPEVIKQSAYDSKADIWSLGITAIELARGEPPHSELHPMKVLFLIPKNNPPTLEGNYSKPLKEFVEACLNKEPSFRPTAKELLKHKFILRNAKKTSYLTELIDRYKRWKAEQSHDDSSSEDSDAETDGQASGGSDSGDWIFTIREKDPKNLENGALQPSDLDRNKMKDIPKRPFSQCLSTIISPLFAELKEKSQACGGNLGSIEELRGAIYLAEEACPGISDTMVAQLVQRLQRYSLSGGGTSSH
Sequence of Ephrin type-A receptor 7 (Homo sapiens) (Q15375 28-998 limits assumed): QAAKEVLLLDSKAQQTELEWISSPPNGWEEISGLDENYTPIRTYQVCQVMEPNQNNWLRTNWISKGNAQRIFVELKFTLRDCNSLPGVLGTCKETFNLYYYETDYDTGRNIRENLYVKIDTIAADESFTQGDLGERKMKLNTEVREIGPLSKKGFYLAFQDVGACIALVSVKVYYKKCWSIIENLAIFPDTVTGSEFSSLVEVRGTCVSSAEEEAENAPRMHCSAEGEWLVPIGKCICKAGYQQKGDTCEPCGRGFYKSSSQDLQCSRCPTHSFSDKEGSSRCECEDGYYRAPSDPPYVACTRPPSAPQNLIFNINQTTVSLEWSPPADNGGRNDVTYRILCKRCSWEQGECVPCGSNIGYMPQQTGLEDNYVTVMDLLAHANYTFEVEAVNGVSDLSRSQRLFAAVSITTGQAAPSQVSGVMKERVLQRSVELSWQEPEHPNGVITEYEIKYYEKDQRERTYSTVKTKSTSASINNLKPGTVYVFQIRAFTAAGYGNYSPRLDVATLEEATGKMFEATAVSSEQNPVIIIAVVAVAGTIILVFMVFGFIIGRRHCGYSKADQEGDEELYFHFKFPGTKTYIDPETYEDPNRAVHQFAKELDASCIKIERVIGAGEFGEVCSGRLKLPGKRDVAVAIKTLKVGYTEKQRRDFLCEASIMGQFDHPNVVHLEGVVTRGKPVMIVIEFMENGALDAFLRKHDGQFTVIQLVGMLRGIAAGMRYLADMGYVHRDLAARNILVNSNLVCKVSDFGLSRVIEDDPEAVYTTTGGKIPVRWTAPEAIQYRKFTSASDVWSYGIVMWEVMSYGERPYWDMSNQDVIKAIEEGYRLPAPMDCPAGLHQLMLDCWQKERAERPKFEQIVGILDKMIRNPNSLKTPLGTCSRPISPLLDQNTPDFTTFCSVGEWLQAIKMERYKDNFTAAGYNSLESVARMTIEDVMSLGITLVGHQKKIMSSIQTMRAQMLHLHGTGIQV
Sequence of Cytoplasmic tyrosine-protein kinase BMX (Homo sapiens) (P51813 whole entry, the tested form may be a part): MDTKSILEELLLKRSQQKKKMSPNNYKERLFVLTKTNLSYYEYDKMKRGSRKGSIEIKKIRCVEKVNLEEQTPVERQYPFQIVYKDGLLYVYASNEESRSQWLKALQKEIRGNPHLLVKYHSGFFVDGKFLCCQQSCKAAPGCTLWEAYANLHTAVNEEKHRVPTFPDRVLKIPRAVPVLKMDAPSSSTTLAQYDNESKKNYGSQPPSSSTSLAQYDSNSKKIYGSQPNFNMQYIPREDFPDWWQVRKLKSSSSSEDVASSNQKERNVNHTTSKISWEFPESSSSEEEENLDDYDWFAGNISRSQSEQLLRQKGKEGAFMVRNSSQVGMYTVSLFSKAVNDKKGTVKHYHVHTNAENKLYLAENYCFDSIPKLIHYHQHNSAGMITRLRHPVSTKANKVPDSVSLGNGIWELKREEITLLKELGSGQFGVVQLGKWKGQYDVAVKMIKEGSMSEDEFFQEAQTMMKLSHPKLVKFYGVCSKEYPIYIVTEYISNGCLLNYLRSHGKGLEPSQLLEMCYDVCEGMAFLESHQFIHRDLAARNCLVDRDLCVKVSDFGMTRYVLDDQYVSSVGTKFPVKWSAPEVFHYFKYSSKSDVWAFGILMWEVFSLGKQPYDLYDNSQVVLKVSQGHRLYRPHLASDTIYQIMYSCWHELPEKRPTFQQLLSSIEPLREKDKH
Sequence of Eukaryotic translation initiation factor 2-alpha kinase 1 (Homo sapiens) (Q9BQI3 whole entry, the tested form may be a part): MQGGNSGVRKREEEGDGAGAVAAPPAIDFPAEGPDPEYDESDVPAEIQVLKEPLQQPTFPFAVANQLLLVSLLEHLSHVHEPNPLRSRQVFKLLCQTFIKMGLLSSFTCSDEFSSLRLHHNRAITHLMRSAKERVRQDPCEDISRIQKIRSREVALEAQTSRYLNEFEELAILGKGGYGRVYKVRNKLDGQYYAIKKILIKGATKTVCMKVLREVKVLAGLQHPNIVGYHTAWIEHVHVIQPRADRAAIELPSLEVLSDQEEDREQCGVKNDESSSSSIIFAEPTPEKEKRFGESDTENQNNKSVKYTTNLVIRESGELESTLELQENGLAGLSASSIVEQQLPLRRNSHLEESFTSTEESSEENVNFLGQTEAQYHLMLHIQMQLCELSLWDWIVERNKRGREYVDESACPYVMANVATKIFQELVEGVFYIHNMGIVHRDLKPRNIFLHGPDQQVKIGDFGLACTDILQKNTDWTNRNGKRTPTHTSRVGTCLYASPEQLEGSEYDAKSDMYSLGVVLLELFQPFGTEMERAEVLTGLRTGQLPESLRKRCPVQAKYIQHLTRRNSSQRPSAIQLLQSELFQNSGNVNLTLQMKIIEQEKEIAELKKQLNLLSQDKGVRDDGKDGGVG
Sequence of Myosin light chain kinase family member 4 (Homo sapiens) (Q86YV6 whole entry, the tested form may be a part): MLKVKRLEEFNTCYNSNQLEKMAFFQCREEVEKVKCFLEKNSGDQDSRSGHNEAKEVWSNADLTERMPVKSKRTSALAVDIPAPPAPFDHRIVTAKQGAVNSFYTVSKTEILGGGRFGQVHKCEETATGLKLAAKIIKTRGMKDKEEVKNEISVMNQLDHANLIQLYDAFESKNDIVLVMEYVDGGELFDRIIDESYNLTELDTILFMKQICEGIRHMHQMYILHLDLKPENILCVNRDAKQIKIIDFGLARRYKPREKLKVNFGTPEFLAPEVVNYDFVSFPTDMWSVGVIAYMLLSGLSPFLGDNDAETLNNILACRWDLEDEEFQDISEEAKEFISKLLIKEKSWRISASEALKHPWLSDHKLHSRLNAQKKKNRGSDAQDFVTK

COc1cc(N2CCC(N3CCN(C)CC3)CC2)ccc1Nc1ncc2c(n1)N(C)c1ccccc1C(=O)N2C
inhibition [1]: 100% | inhibition [2]: 82% | inhibition [3]: 100% | inhibition [4]: 87% | inhibition [5]: 100% | inhibition [6]: 100% | inhibition [7]: 100% | inhibition [8]: 100% | inhibition [9]: 100% | inhibition [10]: 100% | inhibition [11]: 100% | inhibition [12]: 88% | inhibition [13]: 100% | inhibition [14]: 100% | inhibition [15]: 100% | inhibition [16]: 100% | inhibition [17]: 100% | inhibition [18]: 62% | inhibition [19]: 95% | inhibition [20]: 100% | inhibition [21]: 74% | inhibition [22]: 100% | residual activity [23]: 34% | residual activity [24]: 50% | residual activity [25]: 87% | residual activity [26]: 83% | residual activity [27]: 97% | residual activity [28]: 97% | residual activity [29]: 80%

CCOc1cc(C(=O)N2CCC(N3CCN(C)CC3)CC2)ccc1Nc1ncc2c(n1)N(C1CCCC1)c1ccccc1C(=O)N2C
inhibition [30]: inactive

From ChEMBL document CHEMBL5678810
